# Measurements: article PMC12461339, “Benzoylselenoureas: A Novel Dual-Action Inhibitor Targeting Fungal Growth and Urease Activity in Cryptococcus neoformans” (ACS Omega, 2025)
# “And” between values parts separate entries of the source, which are not always exact repeats. Equal entries are not always repeated. Where two headings read alike, the source gives them in different places.
# Tests used:
# [1] = molecular target: T1, C. neoformans urease (Cryptococcus neoformans, UniProt O13465); test: Urease activity in crude protein extract, indophenol method; format: biochemical; conditions: ureIC50, BSU series
# T1 construct: endogenous in cells; host or cells: Cryptococcus neoformans H99, lysed by sonication; dialysed and lyophilised soluble fraction (total protein)
# Experimental: C. neoformans H99 yeasts were cultivated in 100 mL of Christensen broth for 72 h at 35 °C by shaking at 200 rpm for the obtention of urease as previously described. Briefly, the yeasts were ruptured using a lysis buffer (40 mM Tris-HCl, 20 mM dithiothreitol, 4% Triton X-100, 1 mM ethylenediaminetetraacetic acid, 2 mM phenylmethylsulfonyl fluoride, protease inhibitor cocktail) and an ultrasonic sonicator. After centrifugation, the soluble fraction was dialyzed in a dialysis membrane submerged in 10 mM sodium phosphate buffer, pH 7.0; the sample was lyophilized and stored at −20 °C. Before the assay, the sample was resuspended in 1 mL of sodium phosphate buffer (10 mM, pH 7.0), and the total protein was quantified by the Bradford method.
# The urease activity was determined by the indophenol method. In a 96-well microplate, 10 μL of 100 mM urea was added to 45 μL of total protein and 45 μL of BSU1-BSU11 (concentrations of 0.06–1000 μg/L) in phosphate buffer. The reaction was maintained for 10 min under shaking at 600 rpm, at room temperature. Then, 45 μL of solution A (1% phenol; 0.005% sodium nitroprusside) and 70 μL of solution B (0.5% sodium hydroxide; 0.1% sodium hypochlorite) were immediately added to the wells in the dark and incubated for 5 min at 50 °C under shaking at 600 rpm. Urease activity was quantified by measuring absorbance at 670 nm. The inhibitory concentration capable of inhibiting 50% of urease activity (ureIC50) was determined by nonlinear regression calculation using the GraphPad Prism 5.0 software.
# [2] = test system: C. neoformans H99; test: Minimum fungicidal concentration by subculturing after MIC reading; format: cell-based; conditions: Cryptococcus neoformans
# Experimental: After MIC readings, the MFC values were determined by subculturing, at 35 °C for 48 h, of all concentrations that inhibited the fungal growth; and then MFC was defined as the lowest concentration of the compound capable of reducing ≥99% viability of the initial fungal inoculum. ,
# [3] = test system: C. neoformans H99; test: Broth microdilution antifungal assay (MIC) in RPMI or urea medium; format: cell-based; conditions: Cryptococcus neoformans
# Experimental: (§1) C. neoformans H99 (or ATCC 208821), a standard strain, was used to evaluate the antifungal activity of BSU1-BSU11 and BTU1-BTU11 compounds using the broth microdilution method. The assay was performed in two different culture media: the standard medium RPMI 1640 buffered with […] (RMPI), and the Christensen broth (urea medium: 1 g/L peptone, 1 g/L dextrose, 5 g/L sodium chloride, 2 g/L potassium phosphate, 20 g/L urea, 12 mg/L phenol red, pH 7.0). The compounds were dissolved in dimethyl sulfoxide (DMSO) and diluted in both media, obtaining final concentrations from 0.03 to 128 mg/L in a 96-well plate and final DMSO concentration below 0.5%, considered nontoxic. For assay, yeasts were distributed in each well to obtain a final inoculum of 0.5–2.5 × 10^3 CFU/mL, and the plate was incubated at 35 °C for 48 h.
# (§2) The MIC values were determined in both media and were defined as the lowest concentrations of BSU1-BSU11 and BTU1-BTU11 that inhibited 50% of fungal growth visually compared with untreated yeasts (growth control). In addition, the urease activity was indicated by medium color change from orange to pink due to ammonia production and the MICure was defined as the lowest concentration that inhibited the urease activity by visual inspection in urea medium with no color changes. For both assays, two controls were included: untreated yeast group for observation of fungal growth pattern or intracellular urease activity, and wells containing only medium for assay sterility control.
# [4] = molecular target: T2, yeast urease activity (Cryptococcus neoformans, UniProt O13465); test: Inhibition of yeast urease activity in urea (Christensen) medium, colour change (MICure); format: cell-based
# T2 construct: endogenous in cells; host or cells: Cryptococcus neoformans H99 (ATCC 208821) yeasts in Christensen urea broth
# Experimental: The inhibitory activity against yeast urease was assessed using Christensen’s medium, which contains urea to induce URE1 gene expression. […] Even in the presence of fungal growth, inhibition of urease activity was evidenced by the absence of medium color change, indicating suppressed ammonia production.
# as §1, §2
# [5] = test system: C. neoformans; set-up: method as in PMID 36960287; conditions: against C. neoformans; cited from earlier work
# [6] = H99, BSU series, after assay in RPMI medium, ≥99% reduction of viability
# [7] = H99, Table S1, RPMI medium line
# [8] = H99, Table S1, urea medium line
# [9] = H99, 48 h, read-out: MIC RPMI, BSU series, 50% inhibition of fungal growth, RPMI medium, 35 °C, 48 h
# [10] = H99, 48 h, read-out: MIC urea, BSU series, 50% inhibition of fungal growth, urea medium, 35 °C, 48 h
# [11] = H99, Table S1, RPMI medium, C. neoformans H99
# [12] = H99, Table S1, urea medium, C. neoformans H99
# [13] = BSU series, 100% inhibition of yeast urease activity in urea medium
# [14] = Table S1, urea medium, 100% inhibition of yeast urease activity
# T2 sequence (O13465 whole entry): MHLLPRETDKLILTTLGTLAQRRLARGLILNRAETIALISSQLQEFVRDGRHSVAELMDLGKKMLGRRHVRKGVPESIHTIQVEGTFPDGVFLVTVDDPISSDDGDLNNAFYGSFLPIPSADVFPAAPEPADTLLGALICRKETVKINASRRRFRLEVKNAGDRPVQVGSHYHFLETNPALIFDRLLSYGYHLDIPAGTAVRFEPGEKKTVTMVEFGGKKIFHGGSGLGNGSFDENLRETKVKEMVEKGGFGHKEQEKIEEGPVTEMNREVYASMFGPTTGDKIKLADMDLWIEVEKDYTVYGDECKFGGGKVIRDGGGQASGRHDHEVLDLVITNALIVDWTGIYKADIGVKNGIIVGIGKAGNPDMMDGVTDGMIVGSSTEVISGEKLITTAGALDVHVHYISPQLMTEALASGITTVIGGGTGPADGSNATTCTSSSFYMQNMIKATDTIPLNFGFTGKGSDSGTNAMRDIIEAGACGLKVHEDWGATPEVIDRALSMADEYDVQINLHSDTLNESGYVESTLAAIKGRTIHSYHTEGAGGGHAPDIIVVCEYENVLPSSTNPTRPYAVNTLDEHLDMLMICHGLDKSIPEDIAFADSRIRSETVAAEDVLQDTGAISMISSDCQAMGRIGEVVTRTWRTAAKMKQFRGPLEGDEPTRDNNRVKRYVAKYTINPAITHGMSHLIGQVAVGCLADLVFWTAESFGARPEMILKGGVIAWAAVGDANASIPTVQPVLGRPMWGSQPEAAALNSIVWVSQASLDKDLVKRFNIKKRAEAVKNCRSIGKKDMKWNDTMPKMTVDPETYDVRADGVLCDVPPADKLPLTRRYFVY
# T1 sequence (O13465 whole entry): as above
SMILES,IC50 [1],"MFC [2, 6] [µg/mL]","MFC [2, 7] [µg/mL]","MFC [2, 8] [µg/mL]","MIC [3, 9] [µg/mL]","MIC [3, 10] [µg/mL]","MIC [3, 11] [µg/mL]","MIC [3, 12] [µg/mL]","MICURE [4, 13] [mg/L]","MICURE [4, 14] [mg/L]",MIC [5] [mg/L]
O=C(NC(=[Se])Nc1cccc(Br)c1)c1ccccc1 [BSU9],2.31 nM and 2.3 nM,4,1,0.5,4,0.12,1,0.12,0.06,0.12,
O=C(NC(=[Se])Nc1ccccc1[N+](=O)[O-])c1ccccc1 [BSU10],8.68 nM and 8.67 nM,16,16,2,8,1,8,1,1,1,
O=C(NC(=[Se])Nc1cccc([N+](=O)[O-])c1)c1ccccc1 [BSU11],7.91 nM and 7.93 nM,64,> 16,1,32,1,16,1,1,1,
"CCCCNC(=S)NC(=O)c1ccccc1 [Compound 4, N-(butylcarbamothioyl)benzamide]",,,,,,,,,,,31.25 to 62.5
